Holding throughout (assay): NCI tumour cell line growth inhibition, 48 h
The test system of assay [1] is HCT-15.
In assay [2] the test system is RPMI-8226.
Assay [3] relates to SN12C.
Assay [4] concerns UACC-257.
Assay [5] relates to U-251.
Assay [6] concerns IGROV-1.
Assay [7] deals with KM12.
Assay [8] deals with ACHN.
In assay [9] the test system is SF-539.
Assay [10] has as its system SK-MEL-5.
Assay [11] concerns NCI-H226.
Assay [12] has as its system SNB-19.
Assay [13] concerns MOLT-4.
For assay [14], the system named is SF-295.
In assay [15] the test system is CAKI-1.
Assay [16] concerns SW-620.
Assay [17] deals with NCI-H522.
Assay [18] concerns HCT-116.
Assay [19] relates to OVCAR-8.
Assay [20] concerns LOX IMVI.

Each structure is given as a SMILES string.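 Interpolation was linear, between the two tested concentrations surrounding the appropriate level; five concentrations were tested over 48 hours in 96-well plates. GI50 = concentration required for 50% inhibition of growth.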 Activity calls are given as the source filed them. Rule as the data show it: active = GI50 up to about 1.1 µM and inactive = higher.

Regarding `COc1ccc(NC(=S)c2ccoc2C)cc1CC(=O)OC(C)C`, the GI50 in [1] was 55.2 µM; in [2], 50.8 µM (inactive); in assay [3] it was 66.1 µM (inactive); in assay [4] it was 33.4 µM (inactive); in [5] it was 67 µM (inactive); in assay [6], 36 µM (inactive). Moreover, the GI50 is 29.7 µM (inactive) in assay [7]; 30.8 µM (inactive) in [8]; 37.3 µM (inactive) in assay [9]; 34.1 µM (inactive) in assay [10]; 12.4 µM (inactive) in assay [11]; 61.5 µM (inactive) in assay [12]. For the same compound, the GI50 in assay [13] is 18.8 µM (inactive); in assay [14], 38.1 µM (inactive); in [15], 29.2 µM (inactive); in [16], 36.1 µM (inactive); in [17], 36.3 µM (inactive); in [18], 55.8 µM (inactive). Also, the GI50 in assay [19] is 29 µM (inactive); in assay [20], 18.8 µM (inactive).
For `CC(=O)/C(=C\NC(N)=S)C(=O)Nc1ccccc1C`, the GI50 in assay [1] is greater than 100 µM; in assay [2], > 100 µM (inactive); in [3], > 100 µM (inactive); in [4], > 100 µM (inactive); in assay [5], > 100 µM (inactive); in [6] it was > 100 µM (inactive). Moreover, the GI50 in assay [7], in assay [8], in [9], in assay [10], in assay [11] and in assay [12] was > 100 µM (inactive) in each case. Besides, the GI50 in assay [13], in [14], in assay [15], in assay [16], in [17] and in assay [18] was > 100 µM (inactive) each time. Also, the GI50 in assay [19] and in assay [20] was > 100 µM (inactive) in each case.
For the compound `CS(=O)(=O)c1nc(-c2cc3c(c(S(C)(=O)=O)n2)CCC3)cc2c1CCCC2`, the GI50 in assay [1] is greater than 100 µM; in assay [2] it was > 100 µM (inactive); in [3], > 100 µM (inactive); in [4], > 100 µM (inactive); in assay [5], 27.1 µM (inactive); in assay [6], 18.3 µM (inactive). In addition, the GI50 in assay [7] is > 100 µM (inactive); in [8] it was 37 µM (inactive); in assay [9] it was 49.3 µM (inactive); in assay [10], > 100 µM (inactive); in [11] it was > 100 µM (inactive); in assay [12], 32.4 µM (inactive). For the same compound, the GI50 was > 100 µM (inactive) in [13]; 29.7 µM (inactive) in [14]; 17 µM (inactive) in assay [15]; > 100 µM (inactive) in [16]; 17 µM (inactive) in assay [17]; > 100 µM (inactive) in assay [18]. For the same compound, the GI50 in assay [19] was 19.1 µM (inactive); in assay [20] it was 18.7 µM (inactive).
As to `N#CC1(C#N)C=CC(=C2OCC3CCCN23)C=C1` (stereo not given), the GI50 in [1] was greater than 100 µM; in assay [2], > 100 µM (inactive); in assay [3] it was > 100 µM (inactive); in assay [4], > 100 µM (inactive); in [5], > 100 µM (inactive); in [6], > 100 µM (inactive). The GI50 in assay [7] was > 100 µM (inactive); in assay [8] it was > 100 µM (inactive); in assay [9], > 100 µM (inactive); in assay [10], 37.8 µM (inactive); in assay [11] it was > 100 µM (inactive); in assay [12] it was > 100 µM (inactive). Further, the GI50 in assay [13], in assay [14], in assay [15], in assay [16], in assay [17] and in [18] was > 100 µM (inactive) in each case. Further, the GI50 in assay [19] and in assay [20] was > 100 µM (inactive) each time.

Values taken from ChEMBL document CHEMBL1201862, “PubChem BioAssay data set” (2004).
